Measured values: patent publication US12441726B2, “Compounds and uses thereof” (Foghorn Therapeutics Inc., priority 2020, dated 2025)

Assays:
BRG-1 = BRG-1 (Homo sapiens, UniProt P51532); experiment: ATPase catalytic activity assay (ADP-Glo), BRG-1; details: for Emax: 1 h, read-out: BRG1 Max % Inhibition, ADP-Glo, 30 nM BRG-1, 400 μM ATP
BRM = BRM (Homo sapiens, UniProt P51531); experiment: ATPase catalytic activity assay (ADP-Glo), BRM; details: 30 nM BRM, 400 μM ATP; for IC50: BRM ATPase: IC50 (uM)
[1] = tested on: Uveal melanoma cell lines (92-1, MP41, MP38, MP46), hematologic cancer and other cancer cell lines; experiment: Growth of uveal melanoma, hematological and other cancer cell lines, day 3 and day 7 (Cell-titer glo, GI50), Compound A; assay type: cell-based; details: FIG. 1
Method: (§1) Procedure: Uveal melanoma cell lines (92-1, MP41, MP38, MP46), prostate cancer cell lines (LNCAP), lung cancer cell lines (NCI-H1299), and immortalized embryonic kidney lines (HEK293T) were plated into 96 well plates with growth media (see Table 5). […] Cells were incubated at 37 degrees Celsius for 3 days. After three days of treatment, the media was removed from the cells and 30 microliters of TrypLE (Gibco) was added to cells for 10 minutes. Cells were detached from the plates and resuspended with the addition of 170 microliters of growth media. Cells from two DMSO-treated control wells were counted, and the initial number of cells plated at the start of the experiment, were re-plated into fresh-compound containing plates for an additional four days at 37 degrees Celsius. At day 7, cells were harvested as described above. On day 3 and day 7, relative cell growth was measured by the addition of Cell-titer glo (Promega) and luminescence was measured on an Envision plate reader (Perkin Elmer). […] At the time of cell splitting on days […], cells were split into new 96 well plates, and fresh compound was added four hours after re-plating.

[2] = tested on: Uveal melanoma cell lines, 92-1 or MP41; experiment: Comparison to clinical PKC and MEK inhibitors in uveal melanoma cell lines, 3-day growth (Compound A); assay type: cell-based; details: FIG. 2A and 2B
Method: (§2) Procedure: Uveal melanoma cell lines, 92-1 or MP41, were plated in 96 well plates in the presence of growth media (see Table 26). […] Cells were incubated at 37 degrees Celsius for 3 days. After three days of treatment, cell growth was measured with Cell-titer glow (Promega), and luminescence was read on an Envision plate reader (Perkin Elmer).

[3] = tested on: Uveal melanoma cell lines, 92-1 or MP41; experiment: Comparison to clinical PKC and MEK inhibitors in uveal melanoma cell lines, 3-day growth (Compound B); assay type: cell-based; details: FIG. 6A and 6B
Method: as §2, with “27).” for “26).”, “37° C.” for “37 degrees Celsius”

parental MP41 cells = experiment: 7-day growth inhibition assay, parental cells; assay type: cell-based; details: 7-day assay; FIG. 7B
Method: as §1
(§3) Procedure: MP41 uveal melanoma cells were made resistant to the PKC inhibitor (LXS196; MedChemExpress), by long-term culture in growth media (see Table 27) containing increasing concentrations of the compound, up to 1 micromolar.

[4] = tested on: Uveal melanoma cell lines (92-1, MP41, MP38, MP46) and Non-small cell lung cancer cells (NCIH1299); experiment: Growth of uveal melanoma and non-small cell lung cancer cell lines, 3 days (Cell-titer glow); assay type: cell-based; details: 0 to 10 micromolar, FIG. 5
Method: Procedure: Uveal melanoma cell lines (92-1, MP41, MP38, MP46) and Non-small cell lung cancer cells (NCIH1299) were plated into 96 well plates with growth media (see Table 27). BRG1/BRM ATPase inhibitor, compound 67, was dissolved in DMSO and added to the cells in a concentration gradient from 0 to 10 micromolar at the time of plating. Cells were incubated at 37° C. for 3 days. After three days of treatment, cell growth was measured with Cell-titer glow (Promega), and luminescence was read on an Envision plate reader (Perkin Elmer).

[5] = tested on: PKC inhibitor (PKCi)-resistant MP41 uveal melanoma cells; experiment: 7-day growth inhibition assay, PKC inhibitor-resistant cells; assay type: cell-based; details: 7-day assay
Method: as §1, §3

BRG-1, sequence (P51532 whole entry): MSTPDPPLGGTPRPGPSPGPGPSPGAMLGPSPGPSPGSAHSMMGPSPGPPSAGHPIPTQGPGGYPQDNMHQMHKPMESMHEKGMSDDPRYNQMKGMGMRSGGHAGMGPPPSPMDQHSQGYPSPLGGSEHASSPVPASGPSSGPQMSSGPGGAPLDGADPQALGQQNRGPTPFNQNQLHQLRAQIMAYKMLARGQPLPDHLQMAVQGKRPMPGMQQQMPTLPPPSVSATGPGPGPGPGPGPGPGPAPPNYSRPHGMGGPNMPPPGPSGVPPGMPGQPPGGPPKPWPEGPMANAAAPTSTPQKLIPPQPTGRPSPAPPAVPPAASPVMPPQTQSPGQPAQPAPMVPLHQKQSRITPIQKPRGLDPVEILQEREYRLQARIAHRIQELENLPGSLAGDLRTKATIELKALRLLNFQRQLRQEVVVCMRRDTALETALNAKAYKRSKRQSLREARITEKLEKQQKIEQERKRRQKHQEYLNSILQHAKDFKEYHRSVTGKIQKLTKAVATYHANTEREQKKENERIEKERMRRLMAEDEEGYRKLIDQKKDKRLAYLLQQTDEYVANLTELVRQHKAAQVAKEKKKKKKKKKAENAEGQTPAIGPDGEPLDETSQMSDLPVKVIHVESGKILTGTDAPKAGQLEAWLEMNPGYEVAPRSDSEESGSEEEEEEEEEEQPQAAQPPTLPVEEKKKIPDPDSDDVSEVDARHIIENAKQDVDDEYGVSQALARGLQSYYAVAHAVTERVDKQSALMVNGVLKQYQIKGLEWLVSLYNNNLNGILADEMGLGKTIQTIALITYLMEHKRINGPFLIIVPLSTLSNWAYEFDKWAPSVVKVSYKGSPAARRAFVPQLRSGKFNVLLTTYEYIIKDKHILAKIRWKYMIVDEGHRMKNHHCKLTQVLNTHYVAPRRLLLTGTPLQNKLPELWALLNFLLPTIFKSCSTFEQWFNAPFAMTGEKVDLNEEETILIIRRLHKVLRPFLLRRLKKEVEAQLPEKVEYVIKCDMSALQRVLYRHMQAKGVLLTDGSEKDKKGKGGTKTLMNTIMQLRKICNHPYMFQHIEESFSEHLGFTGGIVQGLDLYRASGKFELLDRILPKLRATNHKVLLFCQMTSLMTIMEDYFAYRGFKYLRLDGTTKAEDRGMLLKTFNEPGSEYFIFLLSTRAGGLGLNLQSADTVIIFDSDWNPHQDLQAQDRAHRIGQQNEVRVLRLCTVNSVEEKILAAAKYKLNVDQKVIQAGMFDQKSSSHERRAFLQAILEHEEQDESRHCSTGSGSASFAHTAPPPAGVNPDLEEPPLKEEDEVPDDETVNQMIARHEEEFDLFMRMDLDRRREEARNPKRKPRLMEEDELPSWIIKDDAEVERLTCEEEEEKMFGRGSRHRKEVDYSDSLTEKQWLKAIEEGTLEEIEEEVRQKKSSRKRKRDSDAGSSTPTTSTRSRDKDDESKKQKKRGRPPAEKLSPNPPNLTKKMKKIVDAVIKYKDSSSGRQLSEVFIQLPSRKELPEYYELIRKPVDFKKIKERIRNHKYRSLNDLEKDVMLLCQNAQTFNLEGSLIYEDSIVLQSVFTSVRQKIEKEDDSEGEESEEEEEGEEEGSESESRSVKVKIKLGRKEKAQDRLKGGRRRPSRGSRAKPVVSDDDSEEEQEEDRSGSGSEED
BRM, sequence (P51531 whole entry): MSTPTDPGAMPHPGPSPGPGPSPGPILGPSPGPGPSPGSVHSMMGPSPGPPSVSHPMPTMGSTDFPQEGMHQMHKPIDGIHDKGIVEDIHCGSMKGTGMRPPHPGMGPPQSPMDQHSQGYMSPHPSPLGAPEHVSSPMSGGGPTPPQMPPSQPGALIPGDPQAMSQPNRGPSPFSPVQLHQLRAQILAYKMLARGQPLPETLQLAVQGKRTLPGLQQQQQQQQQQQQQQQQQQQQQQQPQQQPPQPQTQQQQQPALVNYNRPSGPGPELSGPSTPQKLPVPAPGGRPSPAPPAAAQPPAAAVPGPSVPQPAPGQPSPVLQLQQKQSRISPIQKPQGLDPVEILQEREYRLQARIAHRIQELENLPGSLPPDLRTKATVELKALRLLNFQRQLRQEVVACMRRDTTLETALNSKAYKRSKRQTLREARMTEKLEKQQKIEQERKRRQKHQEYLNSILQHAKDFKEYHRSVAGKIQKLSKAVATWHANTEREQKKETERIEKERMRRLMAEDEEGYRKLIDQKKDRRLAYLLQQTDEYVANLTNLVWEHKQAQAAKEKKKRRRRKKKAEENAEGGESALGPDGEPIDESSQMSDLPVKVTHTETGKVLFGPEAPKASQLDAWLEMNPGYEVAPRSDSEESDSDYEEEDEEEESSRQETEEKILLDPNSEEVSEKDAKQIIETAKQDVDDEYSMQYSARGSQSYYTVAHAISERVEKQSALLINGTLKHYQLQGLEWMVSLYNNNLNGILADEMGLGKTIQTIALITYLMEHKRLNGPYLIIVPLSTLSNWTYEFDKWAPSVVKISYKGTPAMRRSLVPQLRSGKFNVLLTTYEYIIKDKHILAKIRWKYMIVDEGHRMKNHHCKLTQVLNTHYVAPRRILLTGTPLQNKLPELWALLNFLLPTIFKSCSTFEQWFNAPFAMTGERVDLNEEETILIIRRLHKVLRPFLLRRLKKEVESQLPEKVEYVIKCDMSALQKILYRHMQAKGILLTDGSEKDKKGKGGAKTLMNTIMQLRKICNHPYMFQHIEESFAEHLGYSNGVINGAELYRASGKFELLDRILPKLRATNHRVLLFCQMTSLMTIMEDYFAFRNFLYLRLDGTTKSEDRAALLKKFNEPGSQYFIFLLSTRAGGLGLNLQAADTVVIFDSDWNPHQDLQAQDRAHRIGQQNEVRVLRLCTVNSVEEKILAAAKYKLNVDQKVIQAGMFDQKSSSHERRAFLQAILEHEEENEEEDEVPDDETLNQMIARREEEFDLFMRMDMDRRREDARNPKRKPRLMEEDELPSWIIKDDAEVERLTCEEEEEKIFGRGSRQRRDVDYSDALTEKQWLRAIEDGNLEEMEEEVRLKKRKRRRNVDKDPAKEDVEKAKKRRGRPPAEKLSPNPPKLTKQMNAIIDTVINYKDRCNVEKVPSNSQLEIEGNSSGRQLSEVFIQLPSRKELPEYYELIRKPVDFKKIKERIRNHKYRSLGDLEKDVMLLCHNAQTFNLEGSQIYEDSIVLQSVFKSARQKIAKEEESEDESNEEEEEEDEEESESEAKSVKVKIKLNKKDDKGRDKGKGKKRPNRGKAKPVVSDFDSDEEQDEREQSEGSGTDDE

IC50 (BRG-1) [nM] | Emax (BRG-1) [%] | BRM Max % Inhibition (BRM) [%] | IC50 (BRM) [µM] | Compound | further results
500 to 1000 | 80 | 97 | < 0.1 | COc1cc(-c2ccc3cnc(CNC(=O)c4ccc5c(c4)[C@](C)(C#N)COC5)cc3n2)ccn1 [Compound 512] | 
> 1000 | 36 | 87 | 0.1 to 0.5 | C[C@@]1(C#N)COCc2ccc(C(=O)NCc3cc4nc(-c5cnn(C6COC6)c5)ccc4cn3)cc21 [Compound 513] | 
> 1000 | 59 | 95 | 0.1 to 0.5 | C[C@@]1(C#N)COCc2ccc(C(=O)NCc3cc4nc(N5CCCC5)ccc4cn3)cc21 [Compound 514] | 
500 to 1000 | 68 | 90 | 0.1 to 0.5 | COc1c(F)cc(F)cc1-c1ccc2cnc(CNC(=O)c3ccc4c(c3)[C@](C)(C#N)COC4)cc2n1 [Compound 515] | 
500 to 1000 | 77 | 96 | 0.1 to 0.5 | COc1c(F)cccc1-c1ccc2cnc(CNC(=O)c3ccc4c(c3)[C@](C)(C#N)COC4)cc2n1 [Compound 516] | 
100 to 500 | 88 | 98 | < 0.1 | COc1ccc(F)cc1-c1ccc2cnc(CNC(=O)c3ccc4c(c3)[C@](C)(C#N)COC4)cc2n1 [Compound 517] | 
500 to 1000 | 72 | 96 | 0.1 to 0.5 | C[C@@]1(C#N)COCc2ccc(C(=O)NCc3cc4nc(-c5cc(F)cc(F)c5)ccc4cn3)cc21 [Compound 518] | 
100 to 500 | 90 | 96 | < 0.1 | C[C@@]1(C#N)COCc2ccc(C(=O)NCc3cc4nc(-c5ccc(C(F)F)cc5)ccc4cn3)cc21 [Compound 519] | 
500 to 1000 | 53 | 88 | 0.1 to 0.5 | C[C@@]1(C#N)COCc2ccc(C(=O)NCc3cc4nc(-c5cnccn5)ccc4cn3)cc21 [Compound 520] | 
> 1000 | 34 | 85 | 0.1 to 0.5 | C[C@@]1(C#N)COCc2ccc(C(=O)NCc3cc4nc(-c5ccccc5C(F)F)ccc4cn3)cc21 [Compound 521] | 
500 to 1000 | 83 | 97 | 0.1 to 0.5 | C[C@@]1(C#N)COCc2ccc(C(=O)NCc3ncc4ccc(-c5ccccc5)cc4n3)cc21 [Compound 522] | 
500 to 1000 | 58 | 90 | 0.1 to 0.5 | COC(=O)N1CCC2CC2(c2ccc3cnc(CNC(=O)c4ccc5c(c4)[C@](C)(C#N)COC5)cc3n2)C1 (stereo partly drawn) [Compound 523] | 
> 1000 | 50 | 95 | 0.1 to 0.5 | C[C@@]1(C#N)COCc2ccc(C(=O)NCc3cc4nn(-c5ccccc5)cc4cn3)cc21 [Compound 524] | 
500 to 1000 | 69 | 97 | 0.1 to 0.5 | O=C(NCc1cc2nc(-c3ccccc3)ccc2cn1)c1ccc2c(c1)[C@@](F)(C(F)F)COC2 [Compound 525] | 
500 to 1000 | 61.2 | 90.7 | 0.1 to 0.5 | C[C@@H]1CN(c2cccc(-c3ccc4[nH]c(CNC(=O)c5ccc6c(c5)[C@](C)(CO)CC6)nc4c3)c2)C[C@H](C)O1 [Compound 526] | 

More lines, now with the values behind:

Compound | IC50 (BRG-1) [nM] | Emax (BRG-1) [%] | BRM Max % Inhibition (BRM) [%] | IC50 (BRM) [µM] | further results
CCOC(=O)C12CCC(CC1)N(c1ccc3cnc(CNC(=O)c4ccc5c(c4)[C@](C)(C#N)COC5)cc3n1)C2 [Compound 502] | 500 to 1000 | 70 | 89 | 0.1 to 0.5 | 
Cc1ccn(-c2ccc3cnc(CNC(=O)c4ccc5c(c4)[C@](C)(C#N)COC5)cc3n2)n1 [Compound 503] | > 1000 | 72 | 94 | 0.1 to 0.5 | 
C[C@@]1(C#N)COCc2ccc(C(=O)NCc3cc4nc(-c5cnn(C(F)F)c5)ccc4cn3)cc21 [Compound 504] | > 1000 | 44 | 84 | 0.1 to 0.5 | 
Cc1cnn(-c2ccc3cnc(CNC(=O)c4ccc5c(c4)[C@](C)(C#N)COC5)cc3n2)c1 [Compound 505] | 500 to 1000 | 72 | 96 | 0.1 to 0.5 | 
C[C@@]1(C#N)COCc2ccc(C(=O)NCc3cc4nc(-c5ccnc(N6CCC6)n5)ccc4cn3)cc21 [Compound 506] | 100 to 500 | 96 | 97 | < 0.1 | 
COc1cnccc1-c1ccc2cnc(CNC(=O)c3ccc4c(c3)[C@](C)(C#N)COC4)cc2n1 [Compound 507] | 100 to 500 | 77 | 97 | < 0.1 | 
C[C@@]1(C#N)COCc2ccc(C(=O)NCc3cc4cc(-c5ccccc5)ncc4cn3)cc21 [Compound 508] | > 1000 | 46 | 90 | 0.1 to 0.5 | 
Cc1nn(C)cc1-c1ccc2cnc(CNC(=O)c3ccc4c(c3)[C@](C)(C#N)COC4)cc2n1 [Compound 509] | 500 to 1000 | 54 | 93 | 0.1 to 0.5 | 
Cn1cccc(-c2ccc3cnc(CNC(=O)c4ccc5c(c4)[C@](C)(C#N)COC5)cc3n2)c1=O [Compound 510] | > 1000 | 64 | 89 | 0.1 to 0.5 | 
C[C@@]1(C#N)COCc2ccc(C(=O)NCc3cc4cc(-c5ccccc5)cnc4cn3)cc21 [Compound 511] | 500 to 1000 | 79 | 96 | < 0.1 | 
CSCC[C@H](NC(=O)c1ccc(N)cc1)C(=O)Nc1nc(-c2cccc(-c3ccncc3)c2)cs1 [Compound A] |  |  |  |  | sensitivity of cell lines to BRG1/BRM inhibition (growth) ([1]; uveal melanoma and hematologic cancer cell lines vs other tested cell lines, 0 to 10 micromolar): more sensitive to BRG1/BRM inhibition than the other tested cell lines; duration of growth inhibition ([1]; uveal melanoma and hematologic cancer cell lines): maintained through day 7; growth inhibition compared to clinical PKC (LXS196) and MEK (Selumetinib) inhibitors ([2]; 3 days, 0 to 10 micromolar): comparable growth inhibition of uveal melanoma cells as the clinical PKC and MEK inhibitors; onset of inhibition compared to clinical PKC and MEK inhibitors [2]: faster onset of inhibition than the clinical PKC and MEK inhibitors
CSCC[C@H](NC(=O)c1ccn(S(C)(=O)=O)c1)C(=O)Nc1nc(-c2cccc(-c3ccncc3)c2)cs1 [Compound B, (S)-1-(methylsulfonyl)-N-(4-(methylthio)-1-oxo-1-((4-(3-(pyridin-4-yl)phenyl)thiazol-2-yl)amino)butan-2-yl)-1H-pyrrole-3-carboxamide] |  |  |  |  | growth inhibition compared to clinical PKC (LXS196) and MEK (Selumetinib) inhibitors ([3]; 3 days, 0 to 10 micromolar): more potent effects on growth inhibition of uveal melanoma cells as compared to the clinical PKC and MEK inhibitors; onset of growth inhibition compared to clinical PKC and MEK inhibitors [3]: faster onset of growth inhibition than the clinical PKC and MEK inhibitors; growth inhibition of parental cell line (parental MP41 cells): strong growth inhibition; growth inhibition in the uveal melanoma cell lines [4]: potent growth inhibition; growth inhibition of PKCi-resistant cell line ([5]; FIG. 7B): strong growth inhibition; sensitivity of PKCi-resistant cells relative to parental MP41 cells ([5]; FIG. 7B): more sensitive to Compound B than were the parental MP41 cells
CC1(N)CCN(c2cccnc2NC(=O)c2nc(-c3ncccc3C(F)(F)F)cnc2N)CC1 [LXS196, reference compound] |  |  |  |  | tolerated concentration for growth, PKCi-resistant vs parental cells ([5]; FIG. 7A): could tolerate growth at higher concentrations of LXS196 than could the parental MP41 cell line
